# Measurements taken from patent US11292787B2, “Five-membered-fused-six-membered aza-aromatic ring compound, preparation method thereof, pharmaceutical composition and application thereof” (XIAMEN UNIVERSITY, priority 2017, dated 2022).
# Biological target: T1, K-Ras protein (Homo sapiens, UniProt P01116, G12V)
# T1 construct: in SW620 cells, compound I-a-1 can effectively enhance the degradation of endogenous K-RAS-G12V proteins; endogenous in cells; host or cells: SW-620
# Assay: K-Ras protein degradation rate by Western blot in SW-620 cells
# Assay type: cell-based
# Details: 10 μM, SW-620 cells, 24 h, Western blot, relative to DMSO control; read-out: Degradation rate of compounds at 10 μM on Ras protein (%)
# Protocol: Inhibitory activity of compounds on K-RAS was evaluated by the degradation rate of protein level of administration group relative to control group (Cell Rep 2014, 7, 871-882).
# The specific method was as follows:
# 1. Cell plating: SW-620 cells in logarithmic growth phase were inoculated into a 24-well plate at 2×10^4/well, and cultured in a 37° C., 5% CO2 incubator.
# 2. Administering drug to cells: after 24 h of culture, various drug stocks […]; the original solution in the 24-well plate was discarded, to which was added the obtained drug solution, with the DMSO group as the blank control; after the drug solution was added, the 24-well plate was transferred to the 37° C. CO2 incubator to continue the culture.
# 3. Detection of K-Ras protein level: after 24 h of administration and culture, the liquid in the well was discarded, the cells were routinely collected, and rinsed twice with 1×PBS, a cell lysate was added to extract the total cellular protein, and the protein concentration was determined by BCA method. 30 μg of the protein sample was taken for SDS-polyacrylamide gel electrophoretic transmembrane, the membrane was blocked sequentially, incubated with K-Ras antibody (1:1000) and internal reference antibody β-actin (1:2000) respectively overnight at 4° C., rinsed with TBST for 5 min×3 times, then incubated with the addition of the corresponding horseradish peroxidase-labeled secondary antibody (1:5000) for 1-2 h, and rinsed with TBST for 5 min×3 times. Finally, chemiluminescence image was acquired using Image Lab software.
# 4. Calculation of single-point K-Ras protein degradation rate: quantitative and calibration analysis of K-Ras and β-actin were conducted using Image-Lab software, and then the intracellular K-Ras degradation rate was calculated according to the following formula: single-point K-Ras protein degradation rate (%)=(control group−administration group)/control group×100%. The drug with degradation rate ≥20% was selected for soft agar experiment.
# T1 sequence (P01116 1-188 isoform P01116-2 G12V): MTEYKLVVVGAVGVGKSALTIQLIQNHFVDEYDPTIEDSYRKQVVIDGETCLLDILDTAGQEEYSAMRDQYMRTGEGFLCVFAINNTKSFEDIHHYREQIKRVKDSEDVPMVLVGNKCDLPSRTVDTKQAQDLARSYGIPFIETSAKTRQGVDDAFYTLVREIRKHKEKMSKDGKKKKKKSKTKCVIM
row,percent K-Ras protein degradation (single point) at 10 µM [%],SMILES
1,10,O=C(NCc1c(F)cccc1Cl)c1ccc(-c2c[nH]c3ccccc23)s1 [IV-f-1]
2,20,O=C(NC1CCCCC1)c1ccc(-c2cnc3cccnn23)cc1 [VIII-e-3]
3,30,O=C(NCc1c(F)cccc1Cl)c1ccc(-c2c[nH]c3ccccc23)cc1 [IV-e-1]
4,10,O=C(NC1CCCCC1)c1c[nH]c(-c2cnc3cnccn23)c1 [VII-b-3]
5,25,COc1ccc(CNC(=O)c2c[nH]c(-c3n[nH]c4ncccc34)c2)cc1 [III-f-55]
6,10,O=C(NCc1c(F)cccc1Cl)c1coc(-c2nnc3ccccn23)c1 [X-c-1]
7,40,O=C(NC1CCCCC1)c1ccc(-c2c[nH]c3ccccc23)cc1 [IV-e-3]
8,35,O=C(NC1CCCCC1)c1csc(-c2c[nH]c3ccccc23)c1 [IV-a-3]
9,40,O=C(NCc1c(F)cccc1Cl)c1csc(-c2cnc3cccnn23)c1 [VIII-a-1]
10,70,O=C(NCc1ccc(F)c(C(F)(F)F)c1)c1c[nH]c(-c2n[nH]c3ncccc23)c1 [III-f-57]
11,50,COc1cccc(CNC(=O)c2c[nH]c(-c3n[nH]c4ncccc34)c2)c1 [III-f-53]
12,60,O=C(NCc1cc(C(F)(F)F)cc(C(F)(F)F)c1)c1c[nH]c(-c2n[nH]c3ncccc23)c1 [III-f-59]
13,15,O=C(NC1CCCCC1)c1ccc(-c2cnc3cccnn23)s1 [VIII-f-3]
14,65,O=C(NCc1cccc(C(F)(F)F)c1F)c1c[nH]c(-c2n[nH]c3ncccc23)c1 [III-f-60]
15,12,O=S(=O)(NCc1c(F)cccc1Cl)c1c[nH]c(-c2n[nH]c3ncccc23)c1 [III-g-4]
16,30,CC(C)(C)n1nc(-c2cccc(C(=O)NCc3c(F)cccc3Cl)c2)c2c(N)ncnc21 [VI-d-1]
17,50,O=C(Nc1ccccc1)c1ccc(-c2cnc3ccccn23)cc1 [IX-e-2]

row,percent K-Ras protein degradation (single point) at 10 µM [%],SMILES
1,20,O=C(NCc1c(F)cccc1Cl)c1c[nH]c(-c2cnc3cccnn23)c1 [VIII-b-1]
2,50,O=C(Nc1ccccc1)c1csc(-c2c[nH]c3ccccc23)c1 [IV-a-2]
3,75,O=C(NCc1cc(F)cc(C(F)(F)F)c1)c1c[nH]c(-c2n[nH]c3ncccc23)c1 [III-f-58]
4,30,O=C(NCc1c(F)cccc1Cl)c1coc(-c2c[nH]c3ccccc23)c1 [IV-c-1]
5,20,O=C(NCc1c(F)cccc1Cl)c1ccc(-c2nnc3ccccn23)s1 [X-f-1]
6,40,O=C(NCc1c(F)cccc1Cl)c1coc(-c2cnc3ccccn23)c1 [IX-c-1]
7,20,O=C(NC1CCCCC1)c1ccc(-c2cnc3cnccn23)s1 [VII-f-3]
8,2,O=C(NCc1c(F)cccc1Cl)c1cccc(-c2cnc3cccnn23)c1 [VIII-d-1]
9,50,COc1ccccc1CNC(=O)c1c[nH]c(-c2n[nH]c3ncccc23)c1 [III-f-54]
10,60,O=C(NCc1cccc(C(F)(F)F)c1)c1csc(-c2cnc3cnccn23)c1 [VII-a-2]
11,20,O=C(Nc1ccccc1)c1ccc(-c2cnc3cnccn23)cc1 [VII-e-2]
12,20,O=C(Nc1ccccc1)c1c[nH]c(-c2cnc3cnccn23)c1 [VII-b-2]
13,30,CC(C)(C)n1nc(-c2cc(C(=O)Nc3ccccc3)cs2)c2c(N)ncnc21 [VI-a-2]
14,10,O=C(Nc1ccccc1)c1c[nH]c(-c2cnc3cccnn23)c1 [VIII-b-2]
15,16,O=S(=O)(Cc1ccc(Cl)cc1)c1c[nH]c(-c2n[nH]c3ncccc23)c1 [III-h-5]
16,41,O=S(=O)(Cc1c(F)cccc1Cl)c1c[nH]c(-c2n[nH]c3ncccc23)c1 [III-h-4]

# The next lines start with the molecule.
row,SMILES,percent K-Ras protein degradation (single point) at 10 µM [%]
1,O=C(Nc1ccccc1)c1c[nH]c(-c2n[nH]c3ncccc23)c1 [III-f-10],18
2,O=C(NCc1ccc(C(F)(F)F)cc1)c1c[nH]c(-c2n[nH]c3ncccc23)c1 [III-f-34],60
3,O=C(NCc1ccc(Br)cc1)c1c[nH]c(-c2n[nH]c3ncccc23)c1 [III-f-43],40
4,O=C(NCc1ccc(Cl)cc1)c1c[nH]c(-c2n[nH]c3ncccc23)c1 [III-f-6],15
5,O=C(NCc1ccccc1F)c1c[nH]c(-c2n[nH]c3ncccc23)c1 [III-f-45],50
6,O=C(Nc1ccccc1)c1coc(-c2c[nH]c3ncccc23)c1 [II-b-2],50
7,O=C(NCCc1ccccc1)c1c[nH]c(-c2n[nH]c3ncccc23)c1 [III-f-24],13
8,O=C(Nc1c(F)cccc1Cl)c1cccc(-c2n[nH]c3ncccc23)c1 [III-c-3],16
9,O=C(Nc1cccc(F)c1)c1c[nH]c(-c2n[nH]c3ncccc23)c1 [III-f-13],16
10,O=C(NCc1cccc(C(F)(F)F)c1)c1csc(-c2n[nH]c3ncccc23)c1 [III-a-3],60
11,O=C(NCc1c(F)cccc1F)c1c[nH]c(-c2n[nH]c3ncccc23)c1 [III-f-3],6
12,O=C(Nc1cccc(C(F)(F)F)c1)c1c[nH]c(-c2n[nH]c3ncccc23)c1 [III-f-11],13
13,O=C(NC1CCCCC1)c1c[nH]c(-c2n[nH]c3ncccc23)c1 [III-f-27],14
14,O=C(NCc1ccc(Cl)c(Cl)c1)c1c[nH]c(-c2n[nH]c3ncccc23)c1 [III-f-4],19
15,O=C(Nc1ccccc1)c1ccc(-c2n[nH]c3ncccc23)cc1 [III-d-2],18
16,O=C(NCc1cc(C(F)(F)F)ccc1F)c1csc(-c2n[nH]c3ccccc23)c1 [I-a-9],30
17,O=C(NCc1c(F)cccc1Cl)c1ccc(-c2c[nH]c3ncccc23)s1 [II-e-1],15

row,SMILES,percent K-Ras protein degradation (single point) at 10 µM [%]
1,O=C(Nc1c(F)cccc1Cl)c1ccc(-c2n[nH]c3ncccc23)cc1 [III-d-3],27
2,Cc1ccc(NC(=O)c2c[nH]c(-c3n[nH]c4ncccc34)c2)cc1 [III-f-16],15
3,O=C(NCc1c(F)cccc1Cl)c1coc(-c2n[nH]c3ccccc23)c1 [I-c-1],11
4,Cc1ccc(CNC(=O)c2c[nH]c(-c3n[nH]c4ncccc34)c2)cc1 [III-f-52],35
5,O=C(Nc1ccccc1)c1ccc(-c2n[nH]c3ncccc23)s1 [III-e-2],40
6,O=C(NCc1cccc([N+](=O)[O-])c1)c1c[nH]c(-c2n[nH]c3ncccc23)c1 [III-f-48],60
7,N#Cc1cccc(CNC(=O)c2c[nH]c(-c3n[nH]c4ncccc34)c2)c1 [III-f-32],60
8,O=C(NCc1c(F)cccc1Cl)c1ccc(-c2n[nH]c3ccccc23)[nH]1 [I-g-1],30
9,O=C(NCc1cccc(Br)c1)c1c[nH]c(-c2n[nH]c3ncccc23)c1 [III-f-41],60
10,O=C(NCc1ccccc1O)c1c[nH]c(-c2n[nH]c3ncccc23)c1 [III-f-35],50
11,O=C(Nc1ccccc1)c1ccc(-c2n[nH]c3ccccc23)s1 [I-f-2],25
12,O=C(NCc1cc(C(F)(F)F)ccc1F)c1csc(-c2n[nH]c3ncccc23)c1 [III-a-4],60
13,O=C(NCc1cccc(F)c1)c1c[nH]c(-c2n[nH]c3ncccc23)c1 [III-f-44],70
14,O=C(NCc1ccccc1Br)c1c[nH]c(-c2n[nH]c3ncccc23)c1 [III-f-42],70
15,O=C(Nc1ccccc1)c1csc(-c2n[nH]c3ccccc23)c1 [I-a-11],30
16,O=C(NCc1c(F)cccc1Cl)c1c[nH]c(-c2n[nH]c3ncccc23)c1 [III-f-1],60
17,O=C(Nc1ccccc1)c1csc(-c2n[nH]c3ncccc23)c1 [III-a-2],9
